Laboratory results reported in ChEMBL document CHEMBL1201862, “PubChem BioAssay data set” (2004).
Activity calls are given as the source filed them.

Assays:
[1] = target: T1, Sentrin-specific protease 7 (Homo sapiens, UniProt Q9BQF6); assay type: functional;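 also: Luminescence-based dose-response confirmation of ultra-high-throughput screening hits, measuring inhibition of SENP7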
T1 sequence (Q9BQF6 whole entry): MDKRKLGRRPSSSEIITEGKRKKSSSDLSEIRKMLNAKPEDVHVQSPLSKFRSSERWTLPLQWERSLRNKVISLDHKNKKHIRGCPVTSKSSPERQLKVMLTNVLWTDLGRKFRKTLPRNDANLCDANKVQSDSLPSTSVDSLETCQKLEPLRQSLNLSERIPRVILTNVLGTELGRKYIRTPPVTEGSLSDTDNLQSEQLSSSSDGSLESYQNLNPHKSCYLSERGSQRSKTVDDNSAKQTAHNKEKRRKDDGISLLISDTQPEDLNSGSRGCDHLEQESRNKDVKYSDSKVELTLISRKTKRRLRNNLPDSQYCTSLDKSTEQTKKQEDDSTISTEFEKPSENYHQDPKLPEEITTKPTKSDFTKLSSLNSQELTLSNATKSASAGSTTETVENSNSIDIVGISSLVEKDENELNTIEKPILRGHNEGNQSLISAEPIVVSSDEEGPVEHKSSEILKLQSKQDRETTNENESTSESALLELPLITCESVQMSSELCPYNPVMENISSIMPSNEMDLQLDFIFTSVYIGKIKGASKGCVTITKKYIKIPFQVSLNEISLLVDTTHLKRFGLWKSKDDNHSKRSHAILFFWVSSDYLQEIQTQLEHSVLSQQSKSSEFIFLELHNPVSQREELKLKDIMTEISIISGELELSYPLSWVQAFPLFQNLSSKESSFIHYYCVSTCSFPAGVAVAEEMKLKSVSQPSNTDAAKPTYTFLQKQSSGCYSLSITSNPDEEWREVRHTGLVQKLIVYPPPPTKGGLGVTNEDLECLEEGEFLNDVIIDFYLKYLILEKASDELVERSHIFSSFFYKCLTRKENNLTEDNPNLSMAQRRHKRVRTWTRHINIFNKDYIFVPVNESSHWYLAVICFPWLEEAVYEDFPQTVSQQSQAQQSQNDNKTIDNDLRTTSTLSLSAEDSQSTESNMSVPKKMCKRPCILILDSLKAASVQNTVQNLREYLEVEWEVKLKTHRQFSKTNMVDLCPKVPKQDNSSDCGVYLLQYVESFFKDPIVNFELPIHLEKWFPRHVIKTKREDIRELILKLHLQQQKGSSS

Caspase-8 = Caspase-8 (Homo sapiens, UniProt Q14790); experiment: caspase-8 inhibition counter-screen, dose response, selectivity assay for caspase-6 inhibitor project, biochemical, Z-IETD-R110 fluorescence, cherry-picked samples (AID 743294)
Caspase-8, sequence (Q14790 217-374 limits assumed): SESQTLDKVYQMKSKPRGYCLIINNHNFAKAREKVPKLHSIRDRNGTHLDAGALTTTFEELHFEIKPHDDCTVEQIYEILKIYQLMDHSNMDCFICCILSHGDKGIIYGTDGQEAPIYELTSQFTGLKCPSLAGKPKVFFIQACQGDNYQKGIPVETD
Caspase-8, sequence (Q14790 385-479 limits assumed): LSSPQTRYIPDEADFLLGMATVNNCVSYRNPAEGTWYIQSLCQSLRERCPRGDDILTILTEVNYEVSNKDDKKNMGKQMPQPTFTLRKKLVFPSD

[2] = target: T2, Sentrin-specific protease 6 (Homo sapiens, UniProt Q9GZR1); assay type: functional;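 also: Luminescence-based dose-response confirmatory assay of SENP6 inhibition, following up an ultra-high-throughput screen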
T2 sequence (Q9GZR1 whole entry): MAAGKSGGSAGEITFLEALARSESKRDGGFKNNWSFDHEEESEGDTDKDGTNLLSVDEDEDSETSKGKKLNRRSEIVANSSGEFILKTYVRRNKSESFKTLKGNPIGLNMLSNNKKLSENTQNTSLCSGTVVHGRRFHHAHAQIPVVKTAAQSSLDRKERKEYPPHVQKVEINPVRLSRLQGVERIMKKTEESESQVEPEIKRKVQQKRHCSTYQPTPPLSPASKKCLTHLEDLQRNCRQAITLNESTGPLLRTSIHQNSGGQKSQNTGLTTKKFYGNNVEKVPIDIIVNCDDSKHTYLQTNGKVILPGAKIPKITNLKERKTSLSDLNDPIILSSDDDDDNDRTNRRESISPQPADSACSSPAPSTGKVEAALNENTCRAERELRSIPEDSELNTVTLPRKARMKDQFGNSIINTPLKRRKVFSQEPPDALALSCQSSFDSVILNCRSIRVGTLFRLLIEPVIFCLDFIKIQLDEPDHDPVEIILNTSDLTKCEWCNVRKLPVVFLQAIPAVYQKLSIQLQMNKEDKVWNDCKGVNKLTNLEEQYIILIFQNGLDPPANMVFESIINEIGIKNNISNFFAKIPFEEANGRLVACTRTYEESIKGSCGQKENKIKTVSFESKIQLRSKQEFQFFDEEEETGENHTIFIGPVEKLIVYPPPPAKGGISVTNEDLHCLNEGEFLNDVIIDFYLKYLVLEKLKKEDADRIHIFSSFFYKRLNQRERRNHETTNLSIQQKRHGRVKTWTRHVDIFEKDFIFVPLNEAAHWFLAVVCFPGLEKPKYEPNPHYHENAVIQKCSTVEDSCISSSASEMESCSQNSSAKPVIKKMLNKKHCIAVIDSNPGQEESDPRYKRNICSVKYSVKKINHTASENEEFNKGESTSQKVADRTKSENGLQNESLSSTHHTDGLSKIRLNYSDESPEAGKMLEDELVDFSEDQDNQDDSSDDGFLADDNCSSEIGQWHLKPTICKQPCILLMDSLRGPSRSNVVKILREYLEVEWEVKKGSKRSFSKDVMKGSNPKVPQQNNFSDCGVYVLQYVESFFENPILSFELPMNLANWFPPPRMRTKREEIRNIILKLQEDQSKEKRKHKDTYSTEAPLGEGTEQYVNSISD

[3] = target: Tyrosyl-DNA phosphodiesterase 2 (Homo sapiens, UniProt O95551); experiment: human TDP2 enzyme inhibitors, dose response, biochemical, epi absorbance, IC50 (AID 743297)
Tyrosyl-DNA phosphodiesterase 2, sequence (O95551 whole entry): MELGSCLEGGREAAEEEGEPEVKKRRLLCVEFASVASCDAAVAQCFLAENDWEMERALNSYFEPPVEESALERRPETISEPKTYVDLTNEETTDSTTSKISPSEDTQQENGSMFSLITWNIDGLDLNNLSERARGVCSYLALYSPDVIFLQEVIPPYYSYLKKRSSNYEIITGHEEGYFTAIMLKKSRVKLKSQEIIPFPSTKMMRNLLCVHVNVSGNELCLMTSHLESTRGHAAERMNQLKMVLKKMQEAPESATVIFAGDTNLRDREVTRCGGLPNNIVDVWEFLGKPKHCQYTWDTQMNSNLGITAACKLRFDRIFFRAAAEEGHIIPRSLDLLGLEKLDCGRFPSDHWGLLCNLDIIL

cells = assay type: functional, cell-based; details: HEK-CNG
BJ [4] = experiment: cytotoxicity toward BJ-TERT-LT-ST fibroblasts, dose response, cell-based, RAS-independent, luminescence (AID 1935); assay type: functional; details: Homo sapiens;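 also: BJ fibroblasts immortalized with TERT plus LT and ST oncogenes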
[5] = target: Transitional endoplasmic reticulum ATPase (Homo sapiens, UniProt P55072, C522A); experiment: C522A mutant p97 ATPase inhibitors, dose response, counter-screen for p97 inhibitor project, biochemical, luminescence (AID 1544)
Transitional endoplasmic reticulum ATPase, sequence (P55072 2-806 C522A limits assumed): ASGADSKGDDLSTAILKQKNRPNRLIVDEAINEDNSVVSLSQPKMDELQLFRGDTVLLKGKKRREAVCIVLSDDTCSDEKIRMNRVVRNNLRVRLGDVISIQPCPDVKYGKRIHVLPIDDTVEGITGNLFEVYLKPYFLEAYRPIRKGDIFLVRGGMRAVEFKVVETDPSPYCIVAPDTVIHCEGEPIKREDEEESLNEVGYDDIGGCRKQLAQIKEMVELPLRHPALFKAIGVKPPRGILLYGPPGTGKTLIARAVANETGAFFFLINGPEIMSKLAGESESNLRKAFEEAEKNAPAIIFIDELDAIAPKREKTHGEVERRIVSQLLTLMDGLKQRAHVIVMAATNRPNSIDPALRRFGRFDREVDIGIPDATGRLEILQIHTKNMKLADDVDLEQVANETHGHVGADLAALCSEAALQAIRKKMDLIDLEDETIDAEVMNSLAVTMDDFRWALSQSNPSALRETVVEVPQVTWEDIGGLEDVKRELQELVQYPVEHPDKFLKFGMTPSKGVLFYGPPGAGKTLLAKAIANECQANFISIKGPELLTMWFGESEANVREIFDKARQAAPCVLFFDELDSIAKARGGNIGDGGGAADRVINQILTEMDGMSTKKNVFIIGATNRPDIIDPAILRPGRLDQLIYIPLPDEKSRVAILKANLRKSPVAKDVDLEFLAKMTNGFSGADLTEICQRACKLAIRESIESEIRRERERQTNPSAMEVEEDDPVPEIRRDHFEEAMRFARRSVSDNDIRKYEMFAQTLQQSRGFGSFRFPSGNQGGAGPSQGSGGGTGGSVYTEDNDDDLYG

BJ [6] = experiment: cytotoxicity toward BJ-TERT fibroblasts, dose response, cell-based, RAS-independent, luminescence (AID 1933); assay type: functional; details: Homo sapiens
INS1 = experiment: beta cell apoptosis inhibitors, cytokine rescue, dose response, luminescence, retest (AID 449756); assay type: functional, cell-based; details: Rattus norvegicus;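 also: cell death triggered by IL-1 beta plus TNF-alpha plus IFN-gamma mixture; protective hits raise ATP signal compared with cytokine alone wells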
[7] = target: Mothers against decapentaplegic homolog 3 (Homo sapiens, UniProt P84022); experiment: SMAD3 transcription factor inhibitors, dose response (AID 715); assay type: functional
Mothers against decapentaplegic homolog 3, sequence (P84022 whole entry): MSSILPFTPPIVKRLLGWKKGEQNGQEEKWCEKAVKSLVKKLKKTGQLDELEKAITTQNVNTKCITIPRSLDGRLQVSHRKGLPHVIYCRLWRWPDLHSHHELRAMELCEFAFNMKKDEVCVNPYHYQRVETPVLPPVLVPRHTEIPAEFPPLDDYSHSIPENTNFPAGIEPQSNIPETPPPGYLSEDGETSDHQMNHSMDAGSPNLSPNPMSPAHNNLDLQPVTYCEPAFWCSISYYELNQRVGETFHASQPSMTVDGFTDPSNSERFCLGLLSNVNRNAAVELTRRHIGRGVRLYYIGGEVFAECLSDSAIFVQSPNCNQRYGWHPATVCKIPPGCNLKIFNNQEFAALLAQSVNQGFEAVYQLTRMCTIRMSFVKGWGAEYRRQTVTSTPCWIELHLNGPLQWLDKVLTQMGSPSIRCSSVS

BJ [8] = experiment: cells; assay type: functional, cell-based; details: Homo sapiens
[9] = Luminescence Cell-Based Dose Response HTS to Identify Inhibitors of 5'UTR Stem-Loop Driven Prion Protein mRNA Translation in H4 Neuroglioblastoma Cells. [Related pubchem assays: 1827 (Project Summary), 1813 (Primary HTS)]; assay type: functional
[10] = HepG2 cell cytotoxicity, dose response, cytotoxicity control for non-replicating M. tuberculosis project (AID 489018); assay type: functional; details: Mycobacterium tuberculosis
[11] = inhibitors of firefly luciferase expression or activity, dose response, H4 neuroglioma cells, luminescence (AID 1990); assay type: functional, cell-based
[12] = target: Sphingosine 1-phosphate receptor 2 (Homo sapiens, UniProt O95136); experiment: Dose Response Cell Based Assay for Antagonists of the S1P2 Receptor. [Related pubchem assays: 856, 736 ]; assay type: functional
Sphingosine 1-phosphate receptor 2, sequence (O95136 whole entry): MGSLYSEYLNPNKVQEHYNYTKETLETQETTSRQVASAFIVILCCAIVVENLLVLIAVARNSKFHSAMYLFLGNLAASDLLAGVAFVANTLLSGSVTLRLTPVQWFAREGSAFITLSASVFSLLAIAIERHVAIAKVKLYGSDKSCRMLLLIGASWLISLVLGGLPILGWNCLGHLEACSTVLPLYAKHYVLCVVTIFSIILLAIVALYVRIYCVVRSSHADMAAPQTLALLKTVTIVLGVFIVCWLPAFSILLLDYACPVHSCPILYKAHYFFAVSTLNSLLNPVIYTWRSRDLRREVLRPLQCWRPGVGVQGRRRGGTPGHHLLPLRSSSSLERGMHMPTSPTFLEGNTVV

With `Oc1nc(Nc2ccccc2Cl)cc2ccccc12` the IC50 [1] was 4.7 µM (active), the AC50 (Caspase-8) was 13.4 µM (active) and the IC50 [2] was 3.14 µM (active). For the same compound, the IC50 [3] was 28.4 µM (inactive).

With `O=C1C=C(c2c(O)ccc3ccccc23)c2ccccc2C1=O` the EC50 (cells) was > 29.9 µM (inactive).

With `Cc1nc2c(=O)n(C)c(=O)nc-2n(C)n1` the EC50 (BJ [4]) was 4.95 µM (inconclusive), the IC50 [5] was > 50 µM (not active) and the EC50 (BJ [6]) was 4.56 µM (active). The AC50 (INS1) was 0.695 µM (active), the IC50 [7] was 0.038 µM (active) and the EC50 (BJ [8]) was 5.69 µM (active). For the same compound, the EC50 [9] was 0.251 µM (inconclusive), the CC50 [10] was 4.16 µM (active) and the EC50 [11] was 0.235 µM (active). For the same compound, the IC50 [12] was 1.4 µM (active).
